{"source": "patent US20060019971A1", "about": "“Treatment of cardiovascular disease with inhibitors of p38 kinase” (priority 2003, published 2006)", "key": {"[1]": {"tested_on": "IL-6 secretion from HPBMCs", "assay": "IL-6 secretion from HPBMCs, ELISA", "format": "cell-based, human", "protocol": "FIG. 2(a) illustrates both the effect of CRP on IL-6 secretion from HPBMCs and its modulation by a p38 inhibitor. 8×10^5 HPBMCs were plated in 96-well. After 1 hour medium was removed and cells were incubated with or without 10 μg/ml of purified human CRP in serum-free RPMI 1640. In parallel experiments cells were treated with 10% FCS together with the CRP treatment. For the p38 antagonism, the p38 inhibitor was added to a final concentration of 1 μM in the parallel treatment. After 6 hours the conditioned medium was collected and IL-6 and IL-8 levels were determined by ELISA. FIG. 2(b) illustrates the effects of p38 inhibitor concentration on CRP induced IL-6 secretion from HPBMCs. 3×10^5 HPBMCs were plated in 96-well. After 1 hour medium was removed and cells were incubated with 10 μg/ml of purified human CRP plus 10% FCS in the presence of varying concentrations of p38 inhibitor. After 4 hours conditioned medium were collected and IL-6 level was determined by ELISA. FIG. 2(c) illustrates both the effect of CRP on IL-6 gene expressions in HPBMCs and its modulation by p38 inhibitor. 5×10^6 HPBMCs were plated in 6-well. After 1 hour medium was removed and cells were treated with vehicle or 1 μM p38 inhibitor in RPMI 1640 medium. After 1 hour cells were stimulated with 10% FCS only or 10 μg/ml CRP plus 10% FCS. After 6 hours RNA was extracted from the cells and IL-6 expression level was determined by real-time PCR as described in Experimental section.\n(§1) Cryopreserved human peripheral blood monocytes (HPBMCs, from Biowitker, Walkersvill, Md.) were thawed and washed twice in RPMI 1640. Cells were plated in tissue culture plates and incubated in 5% CO2 at 37 C. After 1 hr media were removed and cells were treated with various treatments. After 2 to 20 hours conditioned media and/or cell lysates were collected for the analyses of secreted cytokines, protein or mRNA expression. 10 μg/ml of purified human CRP (Calbiochem, San Diego, Calif.) was used in most of the treatments. In some experiments fetal calf serum (FCS from ATCC) was added to a final concentration of 10% together with CRP. In the examples provided herein, including those assessing the effects of p38 antagonism, cells were pre-treated with SD, a p38 small molecule inhibitor (Compound 162 in Table A) for 1 hour prior to CRP treatment as described above. In a parallel series of experiments, the effect of vehicle (DMSO) was tested. For TaqMan analyses of various gene expression cells were lysed in ice-cold RLT lysis buffer (Qiagen, Valencia, Calif.) and the lysates were kept in −80° C. until the analyses. For Western analyses cells were lysed in RIPA buffer (50 mM Tris-HCl, pH 7.5, 150 mM NaCl, 1 mM EDTA, 1% NP-40) containing phosphatase inhibitor cocktails and protease inhibitor cocktail (Promega, Madison, Wis.).\nConditioned media from the treated cells were collected (6 to 20 hrs), and the level of secreted interleukin 6 (IL-6), interleukin 1 beta (IL-1 β), tumor necrosis factor alpha (TNFα), and interleukin 8 (IL-8) was determined by ELISA according to the manufacturer's instruction (Biosource International, Camarillo, Calif.). All determinations were performed in duplicates.\nAs part of the studies described herein, an investigation was done as to whether the CRP invoked IL-6 secretion from HPBMCs is dependent on p38 MAP kinase signaling. […] The effect of addition of 10% fetal calf serum (FCS) during the CRP treatment on IL-6 secretion was also assessed. […]"}, "TF protein in HPBMCs": {"tested_on": "TF protein in HPBMCs", "assay": "Tissue Factor protein expression in HPBMCs, Western", "format": "cell-based, human", "settings": "1 μM SD, 16 hours", "protocol": "The figures illustrate the effects of CRP on TF protein and mRNA expression in HPBMCs and their modulation by p38 inhibitor. 1.5×10^6 HPBMCs were plated in 48-well. After 1 hour medium was removed and cells were incubated with or without 10 μg/ml of purified human CRP in serum-free RPMI 1640. In parallel experiments, cells were treated with 10% FCS together with the CRP treatment. For the p38 antagonism, p38 inhibitor was added to a final concentration of 1 μM in the parallel treatment. After 16 hours cells were lysed and TF protein level was determined by Western blot. TF signal was normalized by GAPDH signal. As shown in FIG. 7(c), after 6 hours TF mRNA level were determined by real-time PCR as described in the Experimental section.\nas §1, with “For TaqMan analyses of various gene expression cells were lysed in ice-cold RLT lysis buffer (Qiagen, Valencia, Calif.) and the lysates were kept in −80° C. until the analyses. For Western analyses cells were lysed in RIPA buffer (50 mM Tris-HCl, pH 7.5, 150 mM NaCl, 1 mM EDTA, 1% NP-40) containing phosphatase inhibitor cocktails and protease inhibitor cocktail (Promega, Madison, Wis.).” left out\nHPBMCs were treated as described above (p38 MAP kinase activation). […] 10 μg total proteins were resolved on LDS-PAGE (In Vitrogen, Carlsbad, Calif.), and tissue factor protein expression was determined by Western using antibody against human tissue factor (American Diagnostica, Stamford, Conn.). […]"}}, "note": "“Also recorded” adds a separate entry of the source."}
{"smiles": "C[C@@H]1CN(Cc2ccc(F)cc2)[C@@H](C)CN1C(=O)c1cc2c(C(=O)C(=O)N(C)C)c[nH]c2cc1Cl", "note": "[Compound 162]", "values": [{"measurement": "inhibition of CRP-induced IL-6 secretion", "setting": "[1]; 1 μM SD, 10 μg/ml CRP, no FCS, 6 hours", "result": "almost completely attenuated"}, {"measurement": "inhibition of IL-6 secretion induced by CRP plus 10% FCS", "setting": "[1]; 1 μM SD, 6 hours", "result": "dramatically inhibited"}, {"measurement": "inhibition of basal IL-6 secretion", "setting": "[1]; 1 μM SD, HPBMCs, 6 hours", "result": "almost completely attenuated"}, {"measurement": "inhibition of IL-6 secretion invoked by CRP in the presence of FCS", "setting": "[1]; 3 μM SD, 4 hours", "result": "almost completely inhibited"}, {"measurement": "IC50", "setting": "[1]; Homo sapiens, CRP 10 μg/ml in the presence of 10% FCS, 4 hours, read-out: concentration effective to inhibit 50% of IL-6 secretion", "result": "< 0.05", "unit": "µM"}, {"measurement": "reduction of TF protein expression invoked by CRP plus FCS", "setting": "TF protein in HPBMCs", "result": "to control level"}, {"measurement": "reduction of TF protein expression invoked by FCS", "setting": "TF protein in HPBMCs", "result": "to control level"}, {"measurement": "reduction of TF protein expression invoked by CRP", "setting": "TF protein in HPBMCs; listed as SD", "result": "to control level; also recorded: blocked"}]}
